Results from patent publication US8048868B1, “Method of preventing preeclampsia” (Scott & White Healthcare, priority 2008, dated 2011).

Legend:
[1] = tested on: pregnant DOCA+saline (PDS) rats; assay: Rat model of preeclampsia (pregnant DOCA+saline rats), RBG given daily from day 4 of pregnancy; type: in vivo, Sprague-Dawley rats
From the text: In an attempt to reproduce this situation, a rat model was developed and employed in which pregnant animals are given weekly injections of the powerful mineralocorticoid desoxycorticosterone acetate (DOCA) and whose drinking water is replaced with saline Ianosi-Irimie M, Vu H V, Whitbred J M, et al. A rat model of preeclampsia. Clin Exp Hypertens 2005; 8:605-17. These animals develop characteristic findings of human preeclampsia including hypertension, proteinuria, excessive body weight gain and IUGR. In addition, associated with their experimental condition, they excrete increased amounts of the bufodienolide, marinobufagenin (MBG) Vu H V, Ianosi-Irimie M R, Pridjian C A, et al. Involvement of marinobufagenin in a rat model of human preeclampsia. Am J NephroI 2005; 25:520-8. MBG is a cardiotonic steroid which has vasoconstrictor, natriuretic and cardiac inotropic properties Schoner W. Endogenous cardiac glycosides, a new class of steroid hormones. Eur J Biochem 2002; 269:2440-8. Furthermore, the increased urinary excretion of this compound precedes the development of hypertension and proteinuria Vu H V, Ianosi-Irimie M R, Pridjian C A, et al. Involvement of marinobufagenin in a rat model of human preeclampsia. Am J NephroI 2005; 25:520-8. […] Therefore, the purpose of the study which is presented in this communication was to determine if intervention early in pregnancy would have more beneficial effects on IUGR than the administration of RBG at a time when the rodent disorder was already established.
Female Sprague-Dawley rats (200-250 g) were obtained from Charles River Laboratories (Wilmington, Mass.) and housed in the animal facility. They were allowed free access to standard rat chow and tap water. Animal care was conducted in accordance with institutional guidelines. The rats were acclimatized for 1 week prior to being studied. The animals were mated with male Sprague-Dawley rats (Charles River Laboratories, Wilmington, Mass.) weighing 275-300 g. Pregnancy was confirmed by the presence of vaginal plugs or by examination of vaginal smears. The pregnant females were then isolated from the males. Four groups of animals were studied: normal pregnant (NP) rats given tap water ad libitum (n=10), pregnant DOCA+saline (PDS) animals (n=8) injected initially with 12.5 mg of DOCA in a depot form intraperitoneally followed by 6.5 mg on a weekly basis and whose drinking water was replaced with 0.9% saline; normal pregnant rats given RBG by daily injection in a dose of 30 micrograms per kilogram body weight per day intraperitoneally beginning on day 4 of pregnancy (NPR rats, n=5); and, pregnant DOCA+saline+RBG (PDSR) animals (n=8) given daily injections of RBG in a dose of 30 micrograms per kilogram body weight per day intraperitoneally beginning on day 4 of pregnancy in addition to treatment with DOCA+saline. RBG was obtained from ChromaDex (Santa Ana, Calif.) and dissolved in dimethyl sulfoxide (DMSO). Systolic blood pressure (BP) was measured by the tail-cuff method (IITC Inc., LifeScience Instruments, model 59). For each BP value reported, 3-4 readings were performed when the BP had stabilized and the mean of these values was calculated. The measurements were obtained at the following time points: prior to pregnancy (baseline), at 1-4 days, 4-7 days, 6-9 days, 8-11 days, 11-14 days, 13-16 days, 15-18 days and 18-21 days of pregnancy. At 18-21 days of pregnancy, 24-hr urine was collected in the absence of food (this was done to eliminate contamination of the urinary protein determination by any fallen food particles). Each animal was housed separately in a metabolic cage. The rats were sacrificed at 18-21 days of pregnancy and blood was drawn. The pups were counted and inspected for malformations. The 24-hr protein excretion was measured using the pyrogallol red method (Total protein Kit, Micro Pyrogallol Red Method, Sigma). […]

normal pregnant rats = assay: Normal pregnant rats given RBG daily from day 4 of pregnancy (NPR); type: in vivo, Sprague-Dawley rats
Procedure: Female Sprague-Dawley rats (200-250 g) were obtained from Charles River Laboratories (Wilmington, Mass.) and housed in the animal facility. They were allowed free access to standard rat chow and tap water. Animal care was conducted in accordance with institutional guidelines. The rats were acclimatized for 1 week prior to being studied. The animals were mated with male Sprague-Dawley rats (Charles River Laboratories, Wilmington, Mass.) weighing 275-300 g. Pregnancy was confirmed by the presence of vaginal plugs or by examination of vaginal smears. The pregnant females were then isolated from the males. Four groups of animals were studied: normal pregnant (NP) rats given tap water ad libitum (n=10), pregnant DOCA+saline (PDS) animals (n=8) injected initially with 12.5 mg of DOCA in a depot form intraperitoneally followed by 6.5 mg on a weekly basis and whose drinking water was replaced with 0.9% saline; […] (NPR rats, n=5); and, pregnant DOCA+saline+RBG (PDSR) animals (n=8) given daily injections of RBG in a dose of 30 micrograms per kilogram body weight per day intraperitoneally beginning on day 4 of pregnancy in addition to treatment with DOCA+saline. RBG was obtained from ChromaDex (Santa Ana, Calif.) and dissolved in dimethyl sulfoxide (DMSO). Systolic blood pressure (BP) was measured by the tail-cuff method (IITC Inc., LifeScience Instruments, model 59). For each BP value reported, 3-4 readings were performed when the BP had stabilized and the mean of these values was calculated. The measurements were obtained at the following time points: prior to pregnancy (baseline), at 1-4 days, 4-7 days, 6-9 days, 8-11 days, 11-14 days, 13-16 days, 15-18 days and 18-21 days of pregnancy. At 18-21 days of pregnancy, 24-hr urine was collected in the absence of food (this was done to eliminate contamination of the urinary protein determination by any fallen food particles). Each animal was housed separately in a metabolic cage. The rats were sacrificed at 18-21 days of pregnancy and blood was drawn. The pups were counted and inspected for malformations. The 24-hr protein excretion was measured using the pyrogallol red method (Total protein Kit, Micro Pyrogallol Red Method, Sigma).
Creatinine was measured in the blood and urine on a Nova 16 Analyzer (Waltham, Mass.) and the creatinine clearance was calculated. Hematocrit was measured using a StatSpin MP Multipurpose Centrifuge (Norwood, Mass.). Statistics were performed using analysis of variance (ANOVA) and Tukey's post-hoc test.
Blood pressure results for four groups of experimental animals obtained at various time periods during gestation: NP=normal pregnant rats; PDS=pregnant animals given saline in their drinking water and injected weekly with DOCA; PDSR=rats in whom resibufogenin 30 μg/kg/day) was injected at the onset of pregnancy along with DOCA and the provision of saline as drinking water; NPR=normal pregnant animals injected daily with resibufogenin 30 μg/kg/day. See text for statistical analyses.

[2] = tested on: pregnant DOCA+saline (PDS) rats; assay: Rat model of preeclampsia (pregnant DOCA+saline rats), RBG given daily from day 4 of pregnancy; type: in vivo, Sprague-Dawley rats; details: RBG 15 μg/kg/min daily given to PDS rats (data not shown)
[3] = tested on: "preeclamptic (PDS)" rats; details: RBG given when the disorder was established (Vu et al. 2006); cited from earlier work
[4] = PDSR rats, RBG 30 micrograms/kg/day i.p., 18-21 days
[5] = NPR rats, RBG 30 micrograms/kg/day i.p., 18-21 days

C[C@]12CC[C@H](O)C[C@H]1CC[C@@H]1[C@@H]2CC[C@]2(C)[C@@H](c3ccc(=O)oc3)C[C@H]3O[C@]132 [RBG, resibufogenin]
Mean systolic blood pressure (tail-cuff), baseline ([1]; PDSR rats (n=8), prior to pregnancy (baseline)): 105±5 mmHg
CCR (creatinine clearance) [1, 4]: 1.07 ± 0.29 mL/min
Hematocrit [1, 4]: 0.33±0.02
Protein Excretion (24-hr urine) [1, 4]: 2.5±1.1 mg/24 hr
Pups (average number of pups) ([1]; PDSR rats, RBG 30 micrograms/kg/day i.p., sacrifice at 18-21 days): 14.6±1.3
Mean systolic blood pressure (tail-cuff), final ([1]; PDSR rats: DOCA+saline + RBG 30 micrograms/kg/day i.p. from day 4, 18-21 days of pregnancy): 87±6 mmHg
Prevention of hypertension, proteinuria and intrauterine growth restriction (summary) ([1]; early administration in gestation): prevent hypertension, proteinuria and intrauterine growth restriction
Mean systolic blood pressure (tail-cuff), baseline (normal pregnant rats; NPR rats (n=5), prior to pregnancy (baseline)): 104±5 mmHg
CCR (creatinine clearance) (normal pregnant rats; [5]): 1.20 ± 0.49 mL/min
Hematocrit (normal pregnant rats; [5]): 0.38±0.01
Protein Excretion (24-hr urine) (normal pregnant rats; [5]): 4.6±0.8 mg/24 hr
Pups (average number of pups) (normal pregnant rats; NPR rats, RBG 30 micrograms/kg/day i.p., sacrifice at 18-21 days): 11.8±1.6
Mean systolic blood pressure (tail-cuff), final (normal pregnant rats; NPR rats: RBG 30 micrograms/kg/day i.p. from day 4, 18-21 days of pregnancy): 125±6 mmHg
Effect on blood pressure at lower dose (normal pregnant rats; RBG 15 μg/kg/min daily, animal group not clearly stated (data not shown)): did increase blood pressure
Agonist effect on blood pressure (normal pregnant rats; given alone to normal pregnant animals): causes modest hypertension
Prevention of hypertension at lower dose [2]: failed to prevent hypertension
Hypertension and proteinuria [3]: could be corrected
IUGR [3]: trend toward improvement
